In brackets after ≈: the same amount, converted by molar mass. One block for each molecule: values may come before it.
Columns and labels:
Format in all cases: cell-based
[1] = tested on: Leishmania major promastigotes; test: In vitro evaluation on promastigotes (MTT); conditions: 72 h
Experimental: (§1) The compositions 5a (PIBCA-[chitosan20/chitosan20-TBA] 100/0 m/m %) and 4 (MC3+α-cyclodextrin 1/10% m/v), described in point 3 hereinabove, have been tested in vitro on three strains of Leishmania: Leishmania major (MHOM/SU/73/5-ASKH/LEM134), Leishmania tropica (LRC-L39/LEM2563), Leishmania braziliensis (MHOM/BR/75/M2903b). The IC50 were measured then compared to the reference product amphotericin B in order to determine the anti-leishmanial activity of the nanoparticles.
(§2) The promastigote culture was carried out at 26° C. in M199 medium (Sigma, Saint-Quentin Fallavier, France) supplemented with 4.2 mM NaHCO3, 10% of foetal calf serum inactivated by heat (Invitrogen, Saint-Aubin, France), 40 mM Hepes pH 7.5, 100 μM adenosine and 20 μM haemin (complete M199 medium).
(§3) The test of the compositions on prosmatigotes was conducted as previously described (Saint-Pierre-Chazalet et al., J. Antimicrob. Chemother., 2009, 64, 993-1001). Series of dilutions were carried out in 100 μl of complete M199 medium in a 96-well plate. Promastigotes in exponential growth were then added to each well at a rate of 10^6/ml in a final volume of 200 μl. After 72 h of incubation at 26° C., the viability of the promastigotes was measured by using 250 μg/ml of MTT, or 3-(4,5-dimethylthiazol-2-yl)-2,5-diphenyl tetrazolium bromide (Sigma, Saint-Quentin Fallavier, France), which is reduced in formazan, an insoluble product, by the active mitochondria of the living cells. After 4 h of incubation at 26° C., the formazan is then solubilised by adding 100 μl of isopropanol containing 40 mM of HCl in each well, then incubating for 15 minutes under stirring. The viability of the cells was then quantified by measuring the absorbance at 570 nm using a plate reader (Labsystems Multiskan MS). The activity of the compositions is expressed in IC50. Amphotericin B is used as a reference product.

[2] = tested on: Leishmania braziliensis promastigotes; test: In vitro evaluation on promastigotes (MTT); conditions: 72 h
Experimental: as §1, §2, §3

[3] = tested on: Leishmania tropica promastigotes; test: In vitro evaluation on promastigotes (MTT); conditions: 72 h
Experimental: as §1, §2, §3

[4] = tested on: Leishmania tropica axenic amastigotes; test: In vitro evaluation on axenic amastigotes (resazurin); conditions: 72 h
Experimental: as §1
(§4) The culture of the axenic amastigotes was carried out at 37° C. in a complete M199 medium supplemented with 200 μM CaCl2 and 200 μM MgCl2.
(§5) Axenic amastigotes were induced by incubating promastigotes in complete M199 medium supplemented with 200 μM of CaCl2 and 200 μM MgCl2 at 37° C. with 5% CO2 for 48 h. Serial two-fold dilutions of the compositions were then carried out in 100 μl of the same medium in 96-well plates. The axenic amastigotes were then added in each well at 10^6/ml in 200 μl of final. volume After 72 h of incubation at 37° C. with 5% CO2, 20 μl of resazurin at 450 μM were added in each well, then incubated in the dark for 24 h at 37° C. with 5% CO2. In living cells, resazurin is reduced in resofurin. This conversion is monitored by measuring the absorbance at specific wavelengths of the resofurin (570 nm) and of the resazurin (600 nm) by using a microplate reader (Labsystem Multisken MS). The activity of the compositions is expressed in IC50. Amphotericin B is used as a reference product.

[5] = tested on: Leishmania braziliensis axenic amastigotes; test: as above; conditions: 72 h
Experimental: as §1, §4, §5

[6] = tested on: Leishmania major axenic amastigotes; test: as above; conditions: 72 h
Experimental: as §1, §4, §5

[7] = tested on: Leishmania tropica intramacrophagic amastigotes; test: In vitro evaluation on intramacrophagic amastigotes (RAW 264.7, Sybr Green); conditions: 48 h of treatment
Experimental: as §1
(§6) The macrophages RAW 264.7 were maintained at 37° C. with 5% CO2 in DMEM medium (Dulbecco's modified Eagle's medium, Gibco, Saint-Aubin, France) supplemented with 10% of foetal calf serum, inactivated by heat (Invitrogen, Saint-Aubin, France), also called complete DMEM medium.
(§7) The evaluation of the compositions 5a and 4 on intramacrophagic amastigotes was conducted as previously described (Audisio et al., Eur. J. Med. Chem., 2012, 52, 44-50). The macrophages RAW 264.7 were added in the wells of 96-well plates at a rate of 2×10^4 cells per well and incubated for 24 h at 37° C. with 5% CO2. The axenic amastigotes were then induced as described hereinabove, centrifuged at 2000 g for 10 minutes, then resuspended in a complete DMEM medium, and added to each well at a rate of 3.2×10^5 parasites per well, in order to reach a parasite/macrophage ratio of 16:1. After 24 h of infection at 37° C. with 5% CO2, the extracellular parasites were removed and 100 μl of complete DMEM medium containing the seried dilutions of the compositions were added to each well. After 48 h of treatment, the culture medium is removed, then replaced with 100 μl of DirectPCR Lysis reagent (Euromedex, Souffelweyersheim, France), and three freezing-thawing cycles at ambient temperature are then carried out, then 50 μg/ml of proteinase K are added, and a final incubation at 55° C. for 4 hours is carried out in order to allow for the complete lysis of the cells. […] The fluorescence of the DNA was measured using the Mastercycler® realplex (Eppendorf, Montesson, France). […]

[8] = tested on: Leishmania major intramacrophagic amastigotes; test: as above; conditions: 48 h of treatment
Experimental: as §1, §6, §7

[9] = tested on: Leishmania braziliensis intramacrophagic amastigotes; test: as above; conditions: 48 h of treatment
Experimental: as §1, §6, §7

[10] = tested on: Trichomonas vaginalis; test: Anti Trichomonas vaginalis activity, parasite count after 24 h; conditions: reference product, MTZ-sensitive strain ATCC PRA-98
Experimental: Trichomonas vaginalis is axenically cultivated at 35° C. in a trypticase-yeast extract-maltose medium (TYM) (Diamond L. S. et al., J. Parasitol., 1957, 43(4), 488-490) enriched with 10% of decomplemented horse serum (Gibco, France); the strain is subcultured every other day (Camuzat-Dedenis B. et al., Eur. J. Med. Chem., 2001, 36(10), 837-842).
The tubes of culture containing the fresh TYM medium enriched with 10% of horse serum alone (control 1, noted as C1) or those with the compositions tested, are inoculated with the parasite at a rate of 2×10^5 protozoa in 3 mL. The compositions tested are the compositions of PIBCA-[chitosan20/chitosan20-TBA] that have different proportions of chitosan and of thiolated chitosan, namely 100/0, 75/25, 50/50 and 25/75 m/m %. The concentrations in nanoparticles studied are 12.5, 25, 50 and 100 μg/mL.
The results are compared between (i) the nanoparticles of PIBCA/F68; (ii) the solutions comprised of mixtures of PIBCA-[chitosan20/chitosan20-TBA] having different proportions of chitosan and thiolated chitosan, namely 100/0, 75/25, 50/50 and 25/75 m/m %, (iii) the polymerisation medium (control 2, noted as C2). […]
The tubes are incubated for 24 h at 35° C. and the number of parasites per milliliter in each tube is determined microscopically with a haemocytometer (Kova® Glasstic® Slide 10, Hycor Biomedical, United States). […]

[11] = tested on: Candida albicans; test: Activity against Candida albicans, IC50 by microdilution with MTT viability test; conditions: 24 h at 35° C., molecule alone
Experimental: The inoculum is prepared by sampling 5 colonies obtained after 24 h of culture on Sabouraud agar medium, each one of at least 1 mm in diameter, and by putting them in suspension in 5 mL of sterile NaCl (0.85%). The turbidity of each suspension is evaluated by measuring the optical density at a wavelength of 530 nm then adjusted with a sterile isotonic solution so as to obtain an absorbance equivalent to that obtained with the turbidimetric standard (Mac Farland 0.5).
This protocol leads to the obtaining of a suspension of which the concentration is between 1×10^6 and 5×10^6 CFU/mL. […]
Measuring the growth of yeasts is carried out by a standard colorimetric technique that makes use of tetrazolium salt MTT (5 mg/mL) (3-(4,5-dimethylthiazol-2-yl)-2,5-diphenyl tetrazolium bromide) with menadione (vitamin K). […] The quantity of precipitate formed is proportional to the quantity of living cells and to the metabolic activity of each cell. It is sufficient therefore after the incubation of the cells with MTT for 1 h at 37° C., to add an agent solubilising the crystals of formazan, to centrifuge the 96-well plates, and to read the optical density of the supernatant. A simple dosage of the optical density at 570 nm by spectroscopy makes it possible to know the relative quantity of living cells. […]

IC50 (ng/μl) ± SEM [1]: 0.015 ± 0.004 ng/µL (≈ 0.0162 µM)
IC50 (ng/μl) ± SEM [2]: 0.022 ± 0.005 ng/µL (≈ 0.0238 µM)
IC50 (ng/μl) ± SEM [3]: 0.023 ± 0.002 ng/µL (≈ 0.0249 µM)
IC50 (ng/μl) ± SEM [4]: 0.049 ± 0.01 ng/µL (≈ 0.053 µM)
IC50 (ng/μl) ± SEM [5]: 0.055 ± 0.014 ng/µL (≈ 0.0595 µM)
IC50 (ng/μl) ± SEM [6]: 0.038 ± 0.002 ng/µL (≈ 0.0411 µM)
IC50 (ng/μl) ± SEM [7]: 0.51 ± 0.07 ng/µL (≈ 0.552 µM)
IC50 (ng/μl) ± SEM [8]: 0.49 ± 0.13 ng/µL (≈ 0.53 µM)
IC50 (ng/μl) ± SEM [9]: 0.29 ± 0.09 ng/µL (≈ 0.314 µM)
Structure (SMILES): C[C@@H]1[C@H](O)[C@@H](C)/C=C/C=C/C=C/C=C/C=C/C=C/C=C/[C@H](O[C@@H]2O[C@H](C)[C@@H](O)[C@H](N)[C@@H]2O)C[C@@H]2O[C@](O)(C[C@@H](O)C[C@@H](O)[C@H](O)CC[C@@H](O)C[C@@H](O)CC(=O)O[C@H]1C)C[C@H](O)[C@H]2C(=O)O [Amphotericin B-DOC, Amphotericin B]

Structure (SMILES): Cc1ncc([N+](=O)[O-])n1CCO [MTZ, metronidazole]
lethal concentration against Trichomonas vaginalis [10]: 7 µg/mL

IC50 against Candida albicans [11]: 0.00068%
Structure (SMILES): N=C(NCCCCCCNC(=N)NC(=N)Nc1ccc(Cl)cc1)NC(=N)Nc1ccc(Cl)cc1.O=C(O)[C@H](O)[C@@H](O)[C@H](O)[C@H](O)CO.O=C(O)[C@H](O)[C@@H](O)[C@H](O)[C@H](O)CO [chlorhexidine digluconate]

From US10172947B2, “Antiparasitic and/or antifungal composition comprising hydrophobised chitosan” (CENTRE NATIONAL DE LA RECHERCHE SCIENTIFIQUE (CNRS), priority 2013, dated 2019)
